Consider seven molecules from PMC10901353, “Identification of a potent and selective LAPTc inhibitor by RapidFire-Mass Spectrometry, with antichagasic activity” (PLOS Neglected Tropical Diseases, 2024).

“And” between values parts separate entries of the source, which are not always exact repeats. Identical values can stand only once. “Also recorded” adds a separate entry of the source. Like-named read-outs stand apart in the source and are kept apart here.

As usually defined, the Ki is the dissociation constant of the complex between target and ligand, obtained from inhibition or displacement. One may read the inhibition as the drop in the measured response relative to a control, in per cent.

The subject of one data set is HepG2 cells. Nature of the data set: Cytotoxicity assay on human HepG2 cells (resazurin). Type of data set: cell-based.
Test in data set [1]: as above
The format is cell-based. The conditions noted are these: human, HepG2 cells, 72 h, two independent experiments; read-out: pCC50 (HepG2) (converted).

A further data set concerns the target LAPTc (Trypanosoma cruzi, UniProt V5BWE3). The experiment in a line: Mode of inhibition studies by RapidFire-MS. Type of data set: biochemical. Here is the method: Five concentrations of the LSTVIVR peptide substrate (100–1600 μM range) were tested in the presence of 3 nM LAPTc for 40 min. For each substrate concentration, compound 4 was tested at 0, 0.1 and 0.2 μM. For each substrate and compound 4 concentration, a negative control without enzyme was used. Before addition of substrate, LAPTc was preincubated with compound 4 for 15 min. Other experimental conditions were as previously described. Ki was calculated by fitting the Morrison equation to the experimental data. Binding energy (ΔGb) was calculated from Ki according to the equation ΔG = -RTlnKi.

Data set [2] has as its target T1, LAPTc (acidic M17 leucyl-aminopeptidase from T. cruzi) (Trypanosoma cruzi, UniProt V5BWE3). Nature of the data set: High-throughput single point screening for LAPTc inhibitors by RapidFire-MS. The conditions noted are these: read-out: Percent Inhibition. The format is biochemical. As to the method: (§1) This assay was previously described. The assay was performed in 384-well clear F-bottom polypropylene plates with a final reaction volume of 15 μL. The reaction mixture contained 7.5 μL LAPTc in 50 mM Tris-HCl, pH 7.5, 0.005% NP-40 and 7.5 μL LSTVIVR peptide substrate (Cambridge Research Biochemicals, Billingham, UK) in the same buffer was added to start the reaction. The reaction was performed at room temperature for 40 min and then stopped with 85 μL 1% formic acid containing 0.15 mg/mL STVIVR* internal standard (Cambridge Research Biochemicals, Billingham, UK).
Single point screening of a library of 3329 compounds was performed in 384-well clear plates (Greiner 781101) at room temperature. Test compounds (45 nL in DMSO) were transferred to assay plates by an ECHO 550 acoustic dispenser (Labcyte). LAPTc was tested at 3 nM with 150 μM (approximately the value of the apparent Michaelis-Menten constant -appKM- [16]) LSTVIVR peptide substrate in a 40 min reaction. Before addition of substrate, LAPTc was preincubated with 45 nL compounds or DMSO for 15 min. Compounds, dissolved in DMSO, were tested at 30 μM. Controls without compound (the same volume of DMSO, 0% inhibitory effect) and without enzyme and compound (100% inhibitory effect) were prepared. The experiment was performed without replicates. The remaining experimental conditions were maintained as previously described. Data were processed and analysed through ActivityBase XE (IDBS). The selection criterion for hits in this single point screen was percent inhibition larger than the mean plus three standard deviations. All primary screening data are available in ChEMBL (see Data Availability statement).

The target in data set [3] is T1, LAPTc (acidic M17 leucyl-aminopeptidase from T. cruzi). The experiment in a line: Dose-response studies for LAPTc inhibition by RapidFire-MS. The format is biochemical. As to the method: as §1
To generate half-maximum inhibitory concentration (IC50) data for LAPTc, 10-point dose-response curves with 100 μM as highest concentration and 1:2 dilution in DMSO (0.195–100 μM range) were prepared in 384 well plates. All other experimental conditions were as described above. All IC50 curve fitting was performed by four-parameter logistic dose-response curve fit using ActivityBase XE (IDBS). At least three replicates were generated for each hit compound.

A short description of data set [4]: Cytotoxicity against infected Vero host cells in T. cruzi intracellular assay. Type of data set: cell-based, African green monkey. More on the design: Max Effect (Vero): unit not given here. The conditions noted are these: African green monkey, Vero cells infected with T. cruzi; infected Vero host cells, 96 h; read-out: pCC50 (Vero) +/- StDev (converted). As to the method:
(§2) Briefly, these cells were maintained at 37°C and 5% CO2 in MEM supplemented with 10% FCS, sub-culturing every 2–3 days at a ratio of 1:5 after 5 min treatment with Trypsin-EDTA (Gibco).
(§3) This assay was performed as described with the only modification that treatment was 96 h instead of 72 h. Briefly, Vero cells were infected overnight with tissue culture derived T. cruzi trypomastigotes in T225 tissue culture flasks (MOI 5). Any remaining free trypomastigotes were washed away with serum free MEM and the infected Vero cells were harvested by trypsinisation. Compounds (250 nL in DMSO) were dispensed using LabCyte ECHO (Beckman Coulter Life Sciences, USA) into each well of Corning black flat bottomed 384-well plates (Corning, USA). […] The infected Vero cells were then plated into the plates containing the compounds, at 4,000 cells per well in MEM media with 1% FCS. […] The plates were imaged on a Perkin Elmer Operetta high-content imaging system using a 20× objective. Images were analyzed using the Columbus system (Perkin Elmer). The algorithm first identified the Vero nuclei followed by demarcation of the cytoplasm and identification of intracellular amastigotes. This algorithm reported percent infected Vero cell and total number of Vero cells. All potency determinations were carried out in at least three independent replicates and are reported as pEC50 +/- standard deviation. pEC50 = -log(EC50[M]).

The next data set concerns Vero cells. The description is as above. The format is cell-based, African green monkey. More on the design: Max Effect (Vero): unit not given here. As to the method: as §2, §3
The target of the next data set is T2, human LAP3 (Homo sapiens, UniProt P28838).
T2 construct: purchased Assay Genie, Ireland
T2 sequence (P28838 whole entry): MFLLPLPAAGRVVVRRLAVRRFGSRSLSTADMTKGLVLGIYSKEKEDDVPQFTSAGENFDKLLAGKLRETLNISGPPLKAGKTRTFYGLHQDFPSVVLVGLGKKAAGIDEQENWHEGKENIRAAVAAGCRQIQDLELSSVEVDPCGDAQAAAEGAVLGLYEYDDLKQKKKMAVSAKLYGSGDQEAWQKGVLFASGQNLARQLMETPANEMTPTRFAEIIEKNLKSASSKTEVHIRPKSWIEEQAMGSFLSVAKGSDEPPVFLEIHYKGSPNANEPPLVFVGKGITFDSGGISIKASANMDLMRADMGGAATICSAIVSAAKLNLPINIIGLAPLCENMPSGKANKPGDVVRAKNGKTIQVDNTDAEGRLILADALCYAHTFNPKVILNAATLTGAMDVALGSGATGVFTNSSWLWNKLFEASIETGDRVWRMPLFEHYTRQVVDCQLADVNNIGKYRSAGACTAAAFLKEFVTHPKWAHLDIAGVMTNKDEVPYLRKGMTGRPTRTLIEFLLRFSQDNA
The experiment in a line: Dose-response studies for human LAP3 inhibition by RapidFire-MS. The format is biochemical. As to the method:
Human LAP3 enzyme (Assay Genie, Ireland) was tested at 150 nM with 600 μM (~1 appKM) LSTVIVR peptide substrate and 1 mM ZnCl2 in a 180 min reaction. All other experimental conditions were as described above for dose-response assays with LAPTc.

For data set [5], the system named is intracellular T. cruzi amastigotes. The experiment in a line: T. cruzi intracellular assay (high-content imaging, infected Vero cells). The format is cell-based, Trypanosoma cruzi. More on the design: Max Effect (T. cruzi): unit not given here. Here is the method: T. cruzi parasite, TcI strain Silvio X10/7 subclone A1 [34] was maintained in culture as previously described. Parasites were maintained as amastigotes by passaging on a weekly basis in Vero cells. Culture maintenance infections were carried out at an MOI (multiplicity of infection) of 1.5.
This assay was performed as described with the only modification that treatment was 96 h instead of 72 h. Briefly, Vero cells were infected overnight with tissue culture derived T. cruzi trypomastigotes in T225 tissue culture flasks (MOI 5). Any remaining free trypomastigotes were washed away with serum free MEM and the infected Vero cells were harvested by trypsinisation. Compounds (250 nL in DMSO) were dispensed using LabCyte ECHO (Beckman Coulter Life Sciences, USA) into each well of Corning black flat bottomed 384-well plates (Corning, USA). […] The infected Vero cells were then plated into the plates containing the compounds, at 4,000 cells per well in MEM media with 1% FCS. After 96 h incubation at 37°C in presence of 5% CO2, the plates were fixed with 4% formaldehyde for 20 min at room temperature and stained with 5 μg/mL Hoechst 33342. The plates were imaged on a Perkin Elmer Operetta high-content imaging system using a 20× objective. Images were analyzed using the Columbus system (Perkin Elmer). The algorithm first identified the Vero nuclei followed by demarcation of the cytoplasm and identification of intracellular amastigotes. This algorithm reported percent infected Vero cell and total number of Vero cells. All potency determinations were carried out in at least three independent replicates and are reported as pEC50 +/- standard deviation. pEC50 = -log(EC50[M]).

Data set [6] deals with PfA-M17 (M17 LAP from Plasmodium falciparum). The conditions noted are these: cited from earlier work.
In data set [7] the test system is intracellular T. cruzi amastigotes. More on the design: method as in PMID 30001347. The conditions noted are these: reported previously in this assay ref 33; cited from earlier work.
[8] abbreviates: Replicate data generation, individual replicates.

T1 sequence (V5BWE3 entry or part of it): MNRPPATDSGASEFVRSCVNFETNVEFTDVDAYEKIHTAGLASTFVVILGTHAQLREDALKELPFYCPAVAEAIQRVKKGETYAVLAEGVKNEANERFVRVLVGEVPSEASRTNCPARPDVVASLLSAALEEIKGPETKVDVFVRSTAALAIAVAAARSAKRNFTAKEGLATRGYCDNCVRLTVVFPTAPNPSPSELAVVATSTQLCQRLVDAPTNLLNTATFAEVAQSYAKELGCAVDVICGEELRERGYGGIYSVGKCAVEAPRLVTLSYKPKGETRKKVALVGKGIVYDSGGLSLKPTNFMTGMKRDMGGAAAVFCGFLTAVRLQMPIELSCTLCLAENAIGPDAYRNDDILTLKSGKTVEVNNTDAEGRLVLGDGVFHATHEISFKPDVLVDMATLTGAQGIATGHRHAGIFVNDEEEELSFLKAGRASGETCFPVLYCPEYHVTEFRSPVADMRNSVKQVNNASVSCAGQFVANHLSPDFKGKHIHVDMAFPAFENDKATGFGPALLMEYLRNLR
Chain of LAPTc (V5BWE3 entry or part of it): as above

With `COc1ccc2oc(C(=O)Nc3nc(-c4ccccn4)cs3)c(C)c2c1` [Compound 4], the “Selectivity window based on the HepG2 data” value with HepG2 cells (T. cruzi vs HepG2) is more than 166 fold. The “Max Effect (HepG2)” value in the data set with HepG2 cells (individual replicates) is 38 and 49. The “pEC50 (HepG2)” value in the data set on HepG2 cells (individual replicates) was less than 4.0. Further, the “toxicity against HepG2 cells (in words)” value in the data set on HepG2 cells (uninfected HepG2 cells) is “no toxicity was observed; also recorded: some toxicity was seen for compound 4 at 33 μM and 100 μM”. The CC50 at 72 h in data set [1] was more than 100 µM. In addition, the Ki at LAPTc was 0.27 µM. Besides, the “ligand efficiency (LE)” value at LAPTc (LE = -RT ln Ki / number of non-hydrogen atoms) was determined as 0.33. Further, the “experimental binding energy (ΔGb)” value at LAPTc (calculated from Ki, ΔG = -RTlnKi) is reported as -8.95 kcal/mol. For the same molecule, the mode of inhibition entry on LAPTc (with respect to substrate peptide LSTVIVR, Lineweaver-Burk) is “competitive inhibitor”. In addition, in data set [2], the inhibition at 30 µM was 59%. The IC50 in data set [3] (IC50 (LAPTc)) was 0.44 µM; in data set [3] (pIC50 +/- StDev (LAPTc), average of four independent replicates), 0.437 µM; in data set [3] (pIC50, Initial hit confirmation, single replicate), 0.2 µM; in data set [3] (pIC50, Replicate data generation, individual replicates), 0.794 µM and 0.501 µM; against human LAP3, more than 100 µM. Also, the “Hill Slope” value in [3] (Initial hit confirmation, single replicate) was 2.5; in data set [3] (setting [8]), 2.8 and 2.1 and 2.3. Further, the “Maximum Effect” value in data set [3] (setting [8]) was 87% and 81%. Also, the Emax in [3] (read-out: Maximum Effect, Initial hit confirmation, single replicate) is 96%; in [3] (read-out: Maximum Effect, Replicate data generation, individual replicates) it was 83%; in [5] (Trypanosoma cruzi, Vero, individual replicates, read-out: Max Effect (T. cruzi)), 95%. Moreover, in [3] (whether primary screen hit confirmed in potency experiment), the “Hit Confirmation” value was “confirmed”. For the same molecule, the CC50 at 96 h in data set [4] was 2.24 µM. In addition, the “Selectivity index (fold window Tc/Vero)” value in the data set on Vero cells is 3.3 fold. Further, in the data set on Vero cells (individual replicates), the “Max Effect (Vero)” value was 85 and 83 and 79. The “pEC50 (Vero)” value in the data set with Vero cells (individual replicates) is 5.4 and 6.0 and 5.5 and 5.8. Also, the EC50 in [5] (Trypanosoma cruzi, Vero, 96 h, four independent experiments, read-out: pEC50 (T. cruzi) +/- StDev (converted)) was 0.676 µM; in [5] (Trypanosoma cruzi, Vero, 96 h, read-out: EC50 (T. cruzi amastigotes)) it was 0.7 µM; in data set [5] (Trypanosoma cruzi, Vero, individual replicates, read-out: pEC50 (T. cruzi) (converted)) it was 0.631 µM. Further, in data set [5] (individual replicates), the “Max Effect (T. cruzi)” value is 92 and 96 and 100. Besides, the “pEC50 (T. cruzi)” value in data set [5] (individual replicates) is 6.1.
`CC(C)(C)C(=O)NC(C(=O)NO)c1ccc(-c2cc(F)c(F)c(F)c2)cc1` (stereo not shown) [Compound 10o]: in data set [6], the inhibition constant Ki was 0.06 µM.
For `CC(C)(C)C(=O)NC(C(=O)NO)c1ccc(-n2cccn2)cc1` (stereo not shown) [Compound 13d], in [6], the Ki is 0.028 µM.
For the molecule `O=C(Cn1ccnc1[N+](=O)[O-])NCc1ccccc1` [benznidazole], in data set [7], the EC50 was 2 µM and the “pEC50 (T. cruzi)” value is listed as 5.7.
In the case of `CC(C)C[C@H](NC(=O)[C@@H](O)[C@H](N)Cc1ccccc1)C(=O)O` [bestatin, reference compound], the Ki in data set [6] is 0.025 µM. Besides, in data set [3] (average of four independent replicates, read-out: pIC50 +/- StDev (LAPTc) (converted)), the IC50 is 0.24 µM.
`CC1CS(=O)(=O)CCN1/N=C/c1ccc([N+](=O)[O-])o1` (stereo not shown) [nifurtimox]: in [7], the EC50 is 0.8 µM and the “pEC50 (T. cruzi)” value is 6.1.
Take `CC(C)C[C@@H](NC(=O)[C@H](O)[C@@H](N)Cc1ccc([N+](=O)[O-])cc1)C(=O)O` [nitrobestatin]: the inhibitory constant (Ki) in data set [6] was 0.0027 µM.
